# Test results taken from ChEMBL document CHEMBL1143583, “Anchor-GRIND: filling the gap between standard 3D QSAR and the GRid-INdependent descriptors” (J Med Chem, 2005).
# Target: Acetylcholinesterase (Homo sapiens, UniProt P22303)
# Assay: Inhibitory concentration against Acetylcholinesterase; (range = 2-20 uM)
# Conditions: not given
# Chain of Acetylcholinesterase (P22303 whole entry): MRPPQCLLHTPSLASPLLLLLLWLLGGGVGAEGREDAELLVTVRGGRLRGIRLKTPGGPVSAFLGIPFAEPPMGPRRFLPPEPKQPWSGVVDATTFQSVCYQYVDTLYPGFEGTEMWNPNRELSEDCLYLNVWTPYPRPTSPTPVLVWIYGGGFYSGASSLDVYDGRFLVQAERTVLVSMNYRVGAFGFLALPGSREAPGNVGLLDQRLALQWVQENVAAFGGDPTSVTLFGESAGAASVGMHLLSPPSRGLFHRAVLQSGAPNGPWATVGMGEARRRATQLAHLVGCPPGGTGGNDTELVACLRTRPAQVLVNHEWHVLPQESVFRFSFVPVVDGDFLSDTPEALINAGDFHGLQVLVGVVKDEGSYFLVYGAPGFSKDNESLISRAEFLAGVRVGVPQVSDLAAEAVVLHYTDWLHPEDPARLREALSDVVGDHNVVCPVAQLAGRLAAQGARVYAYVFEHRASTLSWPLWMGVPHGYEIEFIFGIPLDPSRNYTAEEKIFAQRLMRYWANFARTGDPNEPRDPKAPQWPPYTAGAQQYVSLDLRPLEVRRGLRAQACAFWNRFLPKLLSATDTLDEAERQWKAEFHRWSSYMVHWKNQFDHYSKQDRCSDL
row,SMILES,IC50
1,CCN(CC)CCN1CC(=O)N(CCc2ccccc2)CC1=O,20 µM
2,O=C1CN(CCN2CCOCC2)C(=O)CN1CCC(c1ccccc1)c1ccccc1,20 µM
3,CCN(CC)CCCN1CC(=O)N(C2CC2)CC1=O,20 µM
4,CC(C)N(CCN1CC(=O)N(CCc2ccc(Cl)cc2Cl)CC1=O)C(C)C,20 µM
5,CC1CCCCN1CCCN1CC(=O)N(CCc2ccc(F)cc2)CC1=O (stereo not given),20 µM
6,COc1ccc(CCN2CC(=O)N(CCc3ccccn3)CC2=O)cc1OC,20 µM
7,O=C1CN(CCN2CCCC2)C(=O)CN1CCCn1ccnc1,20 µM

# Target: Genome polyprotein (Hepatitis C virus genotype 1a (isolate 1) (HCV), UniProt P26664)
# Assay: Inhibitory concentration against hepatitis C virus NS3 protease (IC50 spans 2.5 log units)
# Parameters: species or system Hepacivirus hominis
# Conditions: read-out: Log 1/IC50 (converted)
# Chain of Genome polyprotein (P26664 1027-1657 limits assumed): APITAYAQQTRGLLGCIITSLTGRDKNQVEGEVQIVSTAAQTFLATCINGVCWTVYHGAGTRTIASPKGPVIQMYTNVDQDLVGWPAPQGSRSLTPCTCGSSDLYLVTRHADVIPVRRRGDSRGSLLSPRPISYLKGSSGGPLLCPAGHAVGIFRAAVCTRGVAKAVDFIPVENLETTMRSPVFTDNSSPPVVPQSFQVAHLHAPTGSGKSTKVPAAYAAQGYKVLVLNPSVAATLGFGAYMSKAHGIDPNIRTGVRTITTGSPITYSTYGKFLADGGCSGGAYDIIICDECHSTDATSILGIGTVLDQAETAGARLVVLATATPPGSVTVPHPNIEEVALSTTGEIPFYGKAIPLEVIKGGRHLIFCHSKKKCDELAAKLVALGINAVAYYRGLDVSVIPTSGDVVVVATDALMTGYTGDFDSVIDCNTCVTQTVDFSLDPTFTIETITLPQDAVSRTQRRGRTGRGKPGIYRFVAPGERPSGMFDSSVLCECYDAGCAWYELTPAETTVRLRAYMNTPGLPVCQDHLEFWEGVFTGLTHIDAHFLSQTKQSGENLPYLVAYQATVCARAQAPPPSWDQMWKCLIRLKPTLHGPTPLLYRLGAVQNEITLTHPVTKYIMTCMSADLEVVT
row,IC50,SMILES
1,50.1 µM,CC(=O)N[C@H](C(=O)N[C@H](C(=O)C1C[C@H](Oc2ccc(Cl)cc2)C[C@H]1C(=O)CC1(C(=O)O)CC1)C(C)C)C1CCCCC1 (stereo not given in full)
2,100 µM,CC(=O)N[C@H](C(=O)N[C@H](C(=O)C1C[C@H](Oc2ccc(F)cc2)C[C@H]1C(=O)CC1(C(=O)O)CC1)C(C)C)C1CCCCC1 (stereo not given in full)
3,50.1 µM,CC(=O)N[C@H](C(=O)N[C@H](C(=O)C1C[C@H](Oc2cccc(Br)c2)C[C@H]1C(=O)CC1(C(=O)O)CC1)C(C)C)C1CCCCC1 (stereo not given in full)
4,20 µM,CC(=O)N[C@H](C(=O)N[C@H](C(=O)C1C[C@H](Oc2nc3ccccc3s2)C[C@H]1C(=O)CC1(C(=O)O)CC1)C(C)C)C1CCCCC1 (stereo not given in full)
5,158 µM,CC(=O)N[C@H](C(=O)N[C@H](C(=O)C1C[C@H](Oc2ccncc2)C[C@H]1C(=O)CC1(C(=O)O)CC1)C(C)C)C1CCCCC1 (stereo not given in full)
6,31.6 µM,CC(=O)N[C@H](C(=O)N[C@H](C(=O)C1C[C@H](Oc2ccc(-c3ccccc3)cc2)C[C@H]1C(=O)CC1(C(=O)O)CC1)C(C)C)C1CCCCC1 (stereo not given in full)
7,25.1 µM,CC(=O)N[C@H](C(=O)N[C@H](C(=O)C1C[C@H](Oc2ccc(Br)cc2)C[C@H]1C(=O)CC1(C(=O)O)CC1)C(C)C)C1CCCCC1 (stereo not given in full)
8,10 µM,CC(=O)N[C@H](C(=O)N[C@H](C(=O)C1C[C@H](Oc2ccc(I)cc2)C[C@H]1C(=O)CC1(C(=O)O)CC1)C(C)C)C1CCCCC1 (stereo not given in full)
9,25.1 µM,CC(=O)N[C@H](C(=O)N[C@H](C(=O)C1C[C@H](Oc2ccccc2Br)C[C@H]1C(=O)CC1(C(=O)O)CC1)C(C)C)C1CCCCC1 (stereo not given in full)
10,79.4 µM,CC(=O)N[C@H](C(=O)N[C@H](C(=O)C1C[C@H](Oc2ccccc2)C[C@H]1C(=O)CC1(C(=O)O)CC1)C(C)C)C1CCCCC1 (stereo not given in full)
11,31.6 µM,COc1ccc(-c2ccc(O[C@H]3CC(C(=O)[C@@H](NC(=O)[C@@H](NC(C)=O)C4CCCCC4)C(C)C)[C@H](C(=O)CC4(C(=O)O)CC4)C3)cc2)cc1 (stereo not given in full)
12,200 µM,CC(=O)N[C@H](C(=O)N[C@H](C(=O)C1C[C@H](Oc2cccnc2)C[C@H]1C(=O)CC1(C(=O)O)CC1)C(C)C)C1CCCCC1 (stereo not given in full)
13,6.31 µM,CC(=O)N[C@H](C(=O)N[C@H](C(=O)C1C[C@H](Oc2cccc(-c3ccccc3)c2)C[C@H]1C(=O)CC1(C(=O)O)CC1)C(C)C)C1CCCCC1 (stereo not given in full)
14,100 µM,CC(=O)N[C@H](C(=O)N[C@H](C(=O)C1C[C@H](Oc2ccc(Cl)c3cccnc23)C[C@H]1C(=O)CC1(C(=O)O)CC1)C(C)C)C1CCCCC1 (stereo not given in full)
15,2 µM,CC(=O)N[C@H](C(=O)N[C@H](C(=O)C1C[C@H](Oc2ccnc3cc(Cl)ccc23)C[C@H]1C(=O)CC1(C(=O)O)CC1)C(C)C)C1CCCCC1 (stereo not given in full)

# The next lines start with the compound.
row,SMILES,IC50
1,CC(=O)N[C@H](C(=O)N[C@H](C(=O)C1C[C@H](Oc2ccnc3ccccc23)C[C@H]1C(=O)CC1(C(=O)O)CC1)C(C)C)C1CCCCC1 (stereo not given in full),5.01 µM
2,CC(=O)N[C@H](C(=O)N[C@H](C(=O)C1C[C@H](O)C[C@H]1C(=O)CC1(C(=O)O)CC1)C(C)C)C1CCCCC1 (stereo not given in full),> 1000 µM
3,CC(=O)N[C@H](C(=O)N[C@H](C(=O)C1C[C@H](Oc2cccc(N3CCOCC3)c2)C[C@H]1C(=O)CC1(C(=O)O)CC1)C(C)C)C1CCCCC1 (stereo not given in full),31.6 µM
4,CC(=O)N[C@H](C(=O)N[C@H](C(=O)C1C[C@H](Oc2ccnc3cc(C(F)(F)F)ccc23)C[C@H]1C(=O)CC1(C(=O)O)CC1)C(C)C)C1CCCCC1 (stereo not given in full),6.31 µM
5,CC(=O)N[C@H](C(=O)N[C@H](C(=O)C1C[C@H](Oc2cccnc2-c2ccsc2)C[C@H]1C(=O)CC1(C(=O)O)CC1)C(C)C)C1CCCCC1 (stereo not given in full),> 200 µM
6,CC(=O)N[C@H](C(=O)N[C@H](C(=O)C1C[C@H](Oc2cccc(-c3cccc([N+](=O)[O-])c3)c2)C[C@H]1C(=O)CC1(C(=O)O)CC1)C(C)C)C1CCCCC1 (stereo not given in full),6.31 µM
7,CC(=O)N[C@H](C(=O)N[C@H](C(=O)C1C[C@H](Sc2ccnc3cc(C(F)(F)F)ccc23)C[C@H]1C(=O)CC1(C(=O)O)CC1)C(C)C)C1CCCCC1 (stereo not given in full),10 µM
8,CC(=O)N[C@H](C(=O)N[C@H](C(=O)C1C[C@H](Oc2ccccc2-c2ccc(C(=O)O)cc2)C[C@H]1C(=O)CC1(C(=O)O)CC1)C(C)C)C1CCCCC1 (stereo not given in full),> 200 µM
9,CC(=O)N[C@H](C(=O)N[C@H](C(=O)C1C[C@H](Oc2nccc3ccccc23)C[C@H]1C(=O)CC1(C(=O)O)CC1)C(C)C)C1CCCCC1 (stereo not given in full),7.94 µM
10,COc1ccc2c(O[C@H]3CC(C(=O)[C@@H](NC(=O)[C@@H](NC(C)=O)C4CCCCC4)C(C)C)[C@H](C(=O)CC4(C(=O)O)CC4)C3)ccnc2c1 (stereo not given in full),0.794 µM
11,CC(=O)N[C@H](C(=O)N[C@H](C(=O)C1C[C@H](Oc2ccccc2-c2ccccc2)C[C@H]1C(=O)CC1(C(=O)O)CC1)C(C)C)C1CCCCC1 (stereo not given in full),> 200 µM
12,CC(=O)N[C@H](C(=O)N[C@H](C(=O)C1C[C@H](Sc2nc3ccccc3s2)C[C@H]1C(=O)CC1(C(=O)O)CC1)C(C)C)C1CCCCC1 (stereo not given in full),20 µM
13,CC(=O)N[C@H](C(=O)N[C@H](C(=O)C1C[C@H](Sc2ccc(Br)cc2)C[C@H]1C(=O)CC1(C(=O)O)CC1)C(C)C)C1CCCCC1 (stereo not given in full),39.8 µM
14,COc1ccc2nccc(O[C@H]3CC(C(=O)[C@@H](NC(=O)[C@@H](NC(C)=O)C4CCCCC4)C(C)C)[C@H](C(=O)CC4(C(=O)O)CC4)C3)c2c1 (stereo not given in full),15.8 µM
15,CC(=O)N[C@H](C(=O)N[C@H](C(=O)C1C[C@H](Oc2cccc3cccnc23)C[C@H]1C(=O)CC1(C(=O)O)CC1)C(C)C)C1CCCCC1 (stereo not given in full),251 µM
16,CC(=O)Nc1cccc(-c2cccc(O[C@H]3CC(C(=O)[C@@H](NC(=O)[C@@H](NC(C)=O)C4CCCCC4)C(C)C)[C@H](C(=O)CC4(C(=O)O)CC4)C3)c2)c1 (stereo not given in full),6.31 µM
17,COc1ccc(-c2ccccc2O[C@H]2CC(C(=O)[C@@H](NC(=O)[C@@H](NC(C)=O)C3CCCCC3)C(C)C)[C@H](C(=O)CC3(C(=O)O)CC3)C2)cc1 (stereo not given in full),> 200 µM
18,CC(=O)N[C@H](C(=O)N[C@H](C(=O)C1C[C@H](Oc2cncc3ccccc23)C[C@H]1C(=O)CC1(C(=O)O)CC1)C(C)C)C1CCCCC1 (stereo not given in full),3.98 µM
